Results from patent publication US20250197409A1, “BIFUNCTIONAL COMPOUND AND PHARMACEUTICAL COMPOSITION COMPRISING THE BIFUNCTIONAL COMPOUND, AND METHOD FOR TREATING ANDROGEN RECEPTOR RELATED DISEASE BY USING THE SAME” (ANHORN MEDICINES CO., LTD., priority 2022, published 2025).
Read-outs that look alike come from different tables or passages of the source.

Tests used:
[1] = system: Androgenetic Alopecia (AGA) Mice Model; test: In vivo hair regrowth efficacy in androgenetic alopecia (AGA) mice model; conditions: DHT pre-treated male C57BL/6 mice, topical 3.5 μg/cm2/day once daily, day 20; DHT+vehicle group 3.5
Description: Seven-week old male C57BL/6 mice (with black fur) purchased from BioLASCO Taiwan Co., Ltd. were grouped 6 to 8 mice per cage, and intraperitoneally administered with dihydrotestosterone (DHT) (1 mg/day, dissolved in corn oil) or corn oil alone once daily for four days. DHT is an agonist to androgen receptors, which can be used to induce symptoms of androgenetic alopecia.
Four days later, the dorsal region of the mice was depilated with hair removal cream (Nair Sensitive Hair Removal Cream, 100 mg to 200 mg per mouse). After hair removal, the skin color was recorded by photographs with a resolution of 4032*3024 pixel (day 1, D1). On the next day (D2), the test solutions of the compound 29 and compound 33 in a vehicle were prepared (3.5 μg/cm^2/day), and each test solution or vehicle alone was topically administered on the depilated region once daily for 20 days. The hair removal cream, the test solution and the vehicle were separately rubbed into the dorsal region of mice. The photographs underwent analysis using a self-developed software that utilized auto-image segmentation, primarily focusing on the border of the depilation area. This segmentation process involved classifying different regions within the images. […] The hair regrowth efficacy could be evaluated by the photographs and/or the skin color score.

androgen receptor = target: T1, androgen receptor (Homo sapiens, UniProt P10275, T878A); test: Androgen receptor degradation assay using Western blot analysis; type: cell-based
T1 construct: host or cells: LNCaP.FGC
T1 sequence (P10275 whole entry T878A): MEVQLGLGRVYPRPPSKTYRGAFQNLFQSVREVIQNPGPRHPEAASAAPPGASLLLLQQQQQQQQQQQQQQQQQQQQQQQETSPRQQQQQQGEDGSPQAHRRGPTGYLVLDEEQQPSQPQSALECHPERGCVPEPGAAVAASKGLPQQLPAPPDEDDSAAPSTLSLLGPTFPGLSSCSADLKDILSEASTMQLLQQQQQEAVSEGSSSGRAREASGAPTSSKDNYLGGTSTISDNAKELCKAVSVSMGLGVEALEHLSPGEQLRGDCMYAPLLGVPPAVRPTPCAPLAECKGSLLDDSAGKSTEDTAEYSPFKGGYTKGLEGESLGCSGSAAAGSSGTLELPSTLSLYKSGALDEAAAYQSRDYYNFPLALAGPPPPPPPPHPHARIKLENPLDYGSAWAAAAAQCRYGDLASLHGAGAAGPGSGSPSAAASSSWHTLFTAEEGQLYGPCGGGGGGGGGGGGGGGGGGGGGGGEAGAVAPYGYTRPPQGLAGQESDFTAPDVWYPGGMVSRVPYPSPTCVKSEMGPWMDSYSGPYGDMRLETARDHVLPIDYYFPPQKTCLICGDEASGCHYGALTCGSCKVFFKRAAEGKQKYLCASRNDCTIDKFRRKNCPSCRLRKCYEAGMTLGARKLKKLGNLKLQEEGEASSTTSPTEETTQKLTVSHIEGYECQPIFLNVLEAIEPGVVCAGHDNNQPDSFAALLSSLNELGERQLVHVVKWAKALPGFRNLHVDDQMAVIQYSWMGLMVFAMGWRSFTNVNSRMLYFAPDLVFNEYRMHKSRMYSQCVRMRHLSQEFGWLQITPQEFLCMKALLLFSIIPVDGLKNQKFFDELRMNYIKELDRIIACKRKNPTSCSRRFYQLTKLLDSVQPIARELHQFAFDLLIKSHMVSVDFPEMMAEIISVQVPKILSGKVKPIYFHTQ
T1 sequence (Q96SW2 whole entry partner): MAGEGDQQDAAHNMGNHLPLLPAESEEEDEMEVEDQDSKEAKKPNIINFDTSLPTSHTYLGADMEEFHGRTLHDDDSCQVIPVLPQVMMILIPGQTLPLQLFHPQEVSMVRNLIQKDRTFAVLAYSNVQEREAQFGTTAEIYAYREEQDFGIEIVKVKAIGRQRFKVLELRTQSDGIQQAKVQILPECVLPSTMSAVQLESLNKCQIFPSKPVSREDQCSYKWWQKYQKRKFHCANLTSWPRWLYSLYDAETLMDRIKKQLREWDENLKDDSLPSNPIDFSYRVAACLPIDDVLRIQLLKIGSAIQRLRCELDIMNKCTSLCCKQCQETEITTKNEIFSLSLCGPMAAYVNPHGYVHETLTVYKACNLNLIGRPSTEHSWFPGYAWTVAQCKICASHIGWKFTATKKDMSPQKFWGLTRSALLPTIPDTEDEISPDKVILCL
Summary of the method: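 LNCaP.FGC cells (2×10^5/well) treated with 10-fold serial dilutions in RPMI from 100 nM stock; untreated cells as negative control. AR Western signal normalized to GAPDH, expressed as % remaining versus untreated (100%). DC50 derived from calibration curve of serial dilutions.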

[2] = 24 h, read-out: Androgen Receptor Remaining (%), LNCaP.FGC cells, 100 nM, 24 hr, normalized to GAPDH, untreated cells = 100%
[3] = read-out: AR DC50 (concentration needed for 50% AR degradation); LNCaP.FGC cells, serial 10x dilutions from 100 nM
[4] = LNCaP.FGC cells, serial 10x dilutions from 100 nM; read-out: AR DC50 (concentration needed for 50% AR degradation)

DC50 (androgen receptor; [4]) [nM]	Compound	DC50 (androgen receptor; [3]) [nM]	also measured
	CCn1c2c(c3ccc(OCCCN4CCN(c5ccc(C(=O)N[C@H]6CC[C@H](Oc7ccc(C#N)c(Cl)c7)CC6)nn5)CC4)cc31)C(=O)N(C1CCC(=O)NC1=O)C2=O (some centres unmarked) [Compound 29]	10 to 25	average skin color score (1 = depilated skin, 8 = fully regrown hair) [1]: 8; remaining activity at 0.1 µM (androgen receptor; [2]): 31%
	CCn1c2c(c3ccc(OCCN4CCN(c5ccc(C(=O)N[C@H]6CC[C@H](Oc7ccc(C#N)c(Cl)c7)CC6)nn5)CC4)cc31)C(=O)N(C1CCC(=O)NC1=O)C2=O (some centres unmarked) [Compound 33]	10 to 25	average skin color score (1 = depilated skin, 8 = fully regrown hair) [1]: 6.5; remaining activity at 0.1 µM (androgen receptor; [2]): 27%
10 to 25	Cn1c2c(c3ccc(OCCN4CCC(c5ccc(C(=O)N[C@H]6CC[C@H](Oc7ccc(C#N)c(Cl)c7)CC6)nn5)CC4)cc31)C(=O)N(C1CCC(=O)NC1=O)C2=O (some centres unmarked) [Compound 208]		
	CCn1c2c(c3ccc(OC(C)CCN4CCN(c5ccc(C(=O)N[C@H]6CC[C@H](Oc7ccc(C#N)c(Cl)c7)CC6)nn5)CC4)cc31)C(=O)N(C1CCC(=O)NC1=O)C2=O (some centres unmarked) [Compound 209]	10 to 25	
	CCn1c2c(c3ccc(OC4CCN(CC5CN(c6ccc(C(=O)N[C@H]7CC[C@H](Oc8ccc(C#N)c(Cl)c8)CC7)nn6)C5)CC4)cc31)C(=O)N(C1CCC(=O)NC1=O)C2=O (some centres unmarked) [Compound 210]	10 to 25	
	CCn1c2c(c3ccc(OC(C)CCN4CCC(c5ccc(C(=O)N[C@H]6CC[C@H](Oc7ccc(C#N)c(Cl)c7)CC6)nn5)CC4)cc31)C(=O)N(C1CCC(=O)NC1=O)C2=O (some centres unmarked) [Compound 211]	< 10	
	CCn1c2c(c3ccc(OC4CCN(CC5CCN(c6ccc(C(=O)N[C@H]7C(C)(C)[C@H](Oc8ccc(C#N)c(Cl)c8)C7(C)C)nn6)CC5)CC4)cc31)C(=O)N(C1CCC(=O)NC1=O)C2=O (some centres unmarked) [Compound 212]	25 to 100	
	CCn1c2c(c3ccc(OC4CCN(CC5CCN(c6ccc(C(=O)N[C@H]7C(C)(C)[C@@H](Oc8ccc(C#N)c(Cl)c8)C7(C)C)nn6)CC5)CC4)cc31)C(=O)N(C1CCC(=O)NC1=O)C2=O (some centres unmarked) [Compound 213]	10 to 25	
	CCn1c2c(c3ccc(OC4CCN(CC5CCN(c6ccc(C(=O)N[C@H]7C(C)(C)[C@H](Oc8ccc(C#N)c(Cl)c8)C7(C)C)cc6)CC5)CC4)cc31)C(=O)N(C1CCC(=O)NC1=O)C2=O (some centres unmarked) [Compound 214]	> 100	
10 to 25	Cn1c2c(c3ccc(OC4CCN(CC5CCN(c6ccc(C(=O)N[C@H]7CC[C@H](Oc8ccc(C#N)c(Cl)c8)CC7)nn6)CC5)CC4)cc31)C(=O)N(C1CCC(=O)NC1=O)C2=O (some centres unmarked) [Compound 215]		
< 10	Cn1c2c(c3ccc(OC4CCN(CC5CCN(c6ccc(C(=O)N[C@H]7CC[C@@H](Oc8ccc(C#N)c(Cl)c8)CC7)nn6)CC5)CC4)cc31)C(=O)N(C1CCC(=O)NC1=O)C2=O (some centres unmarked) [Compound 216]		
10 to 25	Cn1c2c(c3ccc(OC4CCN(CC5CN(c6ccc(C(=O)N[C@H]7CC[C@H](Oc8ccc(C#N)c(Cl)c8)CC7)nn6)C5)CC4)cc31)C(=O)N(C1CCC(=O)NC1=O)C2=O (some centres unmarked) [Compound 217]		
25 to 100	Cn1c2c(c3ccc(OC4CCN(CC5CCN(c6ccc(C(=O)N[C@H]7C(C)(C)[C@H](Oc8ccc(C#N)c(Cl)c8)C7(C)C)cc6)CC5)CC4)cc31)C(=O)N(C1CCC(=O)NC1=O)C2=O (some centres unmarked) [Compound 219]		
	CCn1c2c(c3ccc(OCCCN4CCN(c5ncc(C(=O)N[C@H]6CC[C@H](Oc7ccc(C#N)c(Cl)c7)CC6)cn5)CC4)cc31)C(=O)N(C1CCC(=O)NC1=O)C2=O (some centres unmarked) [Compound 220]	25 to 100	
10 to 25	Cn1c2c(c3ccc(OC4CCN(CC5CCN(c6ccc(C(=O)N[C@H]7C(C)(C)[C@H](Oc8ccc(C#N)c(Cl)c8)C7(C)C)nn6)CC5)CC4)cc31)C(=O)N(C1CCC(=O)NC1=O)C2=O (some centres unmarked) [Compound 221]		
10 to 25	Cn1c2c(c3ccc(OC4CCN(CC5CCN(c6ccc(C(=O)N[C@H]7C(C)(C)[C@@H](Oc8ccc(C#N)c(Cl)c8)C7(C)C)cn6)CC5)CC4)cc31)C(=O)N(C1CCC(=O)NC1=O)C2=O (some centres unmarked) [Compound 222]		
